Patent US5696136A, “Method of treating psychosis using azaheterocyclylmethyl” (Bayer Aktiengesellschaft, priority 1991, dated 1997)
Structures can show the parent of a compound that is named as a salt. Where two headings read alike, the source gives them in different places.

Assays:
dopamine D2 receptor = dopamine D2 receptor (Rattus norvegicus, UniProt P61169); experiment: Dopamine D2 receptor test; binding of 3H-sulpiride to membranes from the striatum of rats
Experimental: In this test the binding of the selective D2 receptor antagonist ^3 H-sulpiride to membranes from the striatum of rats is measured. Compounds which bind to dopamine D2 receptors inhibit the binding of ^3 H-sulpiride in a concentration-dependent manner. IC50 values are determined from the displacement curves and the inhibition constants Ki calculated from these values.

5-HT1A receptor = target: T1, 5-HT1A receptor (Bos taurus, UniProt F6Q2H9); experiment: Affinity for the 5-HT1A receptor; binding of 3H-ipsapiron to 5-HT1A receptors in calf hippocampus membranes
T1 construct: 5-HT1A receptors in calf hippocampus membranes; from tissue; host or cells: calf hippocampus membranes
T1 sequence (F6Q2H9 1-422): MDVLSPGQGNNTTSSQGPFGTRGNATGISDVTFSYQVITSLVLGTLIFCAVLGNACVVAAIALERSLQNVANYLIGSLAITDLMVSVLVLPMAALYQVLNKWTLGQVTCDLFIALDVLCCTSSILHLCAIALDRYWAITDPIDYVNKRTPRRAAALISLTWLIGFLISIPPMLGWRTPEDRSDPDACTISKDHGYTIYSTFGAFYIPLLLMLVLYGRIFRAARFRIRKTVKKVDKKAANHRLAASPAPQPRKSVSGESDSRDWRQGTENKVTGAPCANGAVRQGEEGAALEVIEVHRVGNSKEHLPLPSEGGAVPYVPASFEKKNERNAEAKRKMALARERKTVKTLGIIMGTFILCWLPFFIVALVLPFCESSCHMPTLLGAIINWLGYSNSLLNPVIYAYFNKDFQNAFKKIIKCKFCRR
Experimental: Affinity for the 5-HT1A receptor
[W. U. Dompert et al., Naunyn-Schmiedeberg's Arch. Pharmacol. (1985), 328, 467-470].
In this test the binding of ^3 H-ipsapiron to 5-HT1A receptors in calf hippocampus membranes is measured.

5-HT1 receptor = experiment: Affinity for the 5-HT1 receptor; receptor-binding studies using calf hippocampus membrane preparations, 3H-serotonin; conditions: calf hippocampus membranes
Excerpt: Affinity for the 5-HT1 receptor
The high affinity of the compounds according to the invention for 5-hydroxytryptamine receptors of subtype 1 is shown in Table 1 by way of example. The values shown are data which have been determined from receptor-binding studies using calf hippocampus membrane preparations. To this end, ^3 H-serotonin was used as radioactively labelled ligand.

α-adrenergic = conditions: hydrochloride; literature; cited from earlier work
[1] = 3H-sulpiride, rat striatum membranes, Ki calculated from IC50, read-out: Ki

dopamine D2 receptor, sequence (P61169 whole entry): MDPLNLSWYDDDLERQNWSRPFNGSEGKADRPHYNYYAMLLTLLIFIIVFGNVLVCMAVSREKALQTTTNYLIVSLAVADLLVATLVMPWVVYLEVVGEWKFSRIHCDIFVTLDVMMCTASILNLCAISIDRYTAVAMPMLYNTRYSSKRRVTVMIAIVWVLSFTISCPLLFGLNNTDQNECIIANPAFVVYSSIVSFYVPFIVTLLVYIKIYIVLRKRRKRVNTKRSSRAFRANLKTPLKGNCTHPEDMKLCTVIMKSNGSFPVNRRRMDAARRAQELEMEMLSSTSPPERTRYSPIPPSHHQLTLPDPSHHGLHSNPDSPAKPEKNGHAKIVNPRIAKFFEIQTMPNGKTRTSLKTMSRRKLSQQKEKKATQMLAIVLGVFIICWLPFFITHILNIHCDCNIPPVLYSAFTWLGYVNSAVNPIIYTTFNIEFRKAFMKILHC

Row | Structure (SMILES) | Ki (dopamine D2 receptor; [1]) [nM] | Ki (5-HT1A receptor) [nM] | Ki (5-HT1 receptor) [nM] | further results
1 | O=c1[nH]c2ccccc2n1C1CCN(CC2CCc3ccccc3O2)CC1 (centres unmarked) [Example 3, 1-(Chroman-2-yl-methyl)-4-(2-oxo-1-benzimidazolyl)-piperidine] |  |  |  | Ki (dopamine D2 receptor): 0.4 nM
2 | COc1cccc2c1OC(CN1CCC(n3c(=O)[nH]c4ccccc43)CC1)CC2 (centres unmarked) [Example 4] |  |  | 2 | 
3 | c1ccc2c(c1)CCC(CN1CCCCC1)O2 (centres unmarked) [1-[(3,4-dihydro-2H-1-benzopyran-2-yl)methyl]piperidine] |  |  |  | α-adrenergic-blocking effect (α-adrenergic): α-adrenergic-blocking effect

Now from value to compound, other results behind:

Row | Ki (dopamine D2 receptor; [1]) [nM] | Ki (5-HT1A receptor) [nM] | Structure (SMILES) | Ki (5-HT1 receptor) [nM] | further results
4 | 2.3 | 1.4 | COc1cccc2c1OC(CN1CC=C(n3c(=O)[nH]c4ccccc43)CC1)CC2 (centres unmarked) [Example 6] |  | 
5 | 1.8 |  | COc1cccc2c1OC(CN1CCC(CN3C(=O)c4ccccc4C3=O)CC1)CC2 (centres unmarked) [Example 2, 2-[4-(Isoindol-1,3-dion-2-yl)methyl-piperidin-1-yl)methyl-8-methoxychroman oxalate hydrate] | 3 | 
6 |  | 1.5 | O=c1[nH]c2ccccc2n1C1=CCN(CC2CCc3ccccc3O2)CC1 (centres unmarked) [Example 5] |  | 
